Where no end group is shown, it is not given here.
Assays:
[1] = tested on: S. aureus (29): reference (5) and clinical (24) strains; conditions: for Mean value of MIC: mean over 29 S. aureus strains (Table 5); for Mean MIC values: mean over 29 S. aureus strains, as repeated in Table 6
Method: Microbiological assays were performed using reference and clinical strains of Staphylococcus aureus. Minimal inhibitory concentrations (MIC) were determined by broth microdilution method on 96-well polystyrene plates according to Clinical and Laboratory Standards Institute (CLSI) recommendations [Clinical and Laboratory Standards Institute (CLSI) [2012]]. […] All plates were incubated for 18 h at 37 °C. […] Reference strains of S. aureus: ATCC 6538, ATCC 6538/P, ATCC 9144, ATCC 12598, and ATCC 25923 were obtained from the Polish Collection of Microorganisms (PCM, Polish Academy of Sciences, Wrocław), whereas 24 clinical strains were isolated from the patients of the Clinic of Dermatology, Venereology and Allergology (Medical University of Gdańsk). Nine strains were characterized as methicillin-resistant (MRSA). Preliminary identification and detection was conducted on the ChromID MRSA/ChromID S. aureus biplate (bioMérieux) for the simultaneous detection of S. aureus and methicillin-resistant S. aureus (MRSA). All experiments were conducted at least in triplicate.
To asses an overall activity of peptides, the mean MIC values were calculated.

[2] = tested on: S. aureus K46N; type: cell-based, Staphylococcus aureus; conditions: clinical strain, broth microdilution, 0.5 × 10^5 CFU/mL, 18 h, 37 °C, at least triplicate
Method: (§1) Microbiological assays were performed using reference and clinical strains of Staphylococcus aureus. Minimal inhibitory concentrations (MIC) were determined by broth microdilution method on 96-well polystyrene plates according to Clinical and Laboratory Standards Institute (CLSI) recommendations [Clinical and Laboratory Standards Institute (CLSI) [2012]]. For this purpose, the initial inoculums of 0.5 × 10^5 CFU/mL of bacteria were exposed to a range of concentrations of the peptides (0.5–256 µg/mL). All plates were incubated for 18 h at 37 °C. MIC was taken as the lowest concentration of the compound at which the growth of bacteria was not observed. Reference strains of S. aureus: ATCC 6538, ATCC 6538/P, ATCC 9144, ATCC 12598, and ATCC 25923 were obtained from the Polish Collection of Microorganisms (PCM, Polish Academy of Sciences, Wrocław), whereas 24 clinical strains were isolated from the patients of the Clinic of Dermatology, Venereology and Allergology (Medical University of Gdańsk). Nine strains were characterized as methicillin-resistant (MRSA). Preliminary identification and detection was conducted on the ChromID MRSA/ChromID S. aureus biplate (bioMérieux) for the simultaneous detection of S. aureus and methicillin-resistant S. aureus (MRSA). All experiments were conducted at least in triplicate.

[3] = tested on: S. aureus K50S; type: cell-based, Staphylococcus aureus; conditions: clinical strain, broth microdilution, 0.5 × 10^5 CFU/mL, 18 h, 37 °C, at least triplicate
Method: as §1

[4] = tested on: S. aureus 053N; type: cell-based, Staphylococcus aureus; conditions: clinical strain, broth microdilution, 0.5 × 10^5 CFU/mL, 18 h, 37 °C, at least triplicate
Method: as §1

[5] = tested on: S. aureus 013S; type: cell-based, Staphylococcus aureus; conditions: clinical strain, broth microdilution, 0.5 × 10^5 CFU/mL, 18 h, 37 °C, at least triplicate
Method: as §1

[6] = tested on: S. aureus 030N; type: cell-based, Staphylococcus aureus; conditions: clinical strain, broth microdilution, 0.5 × 10^5 CFU/mL, 18 h, 37 °C, at least triplicate
Method: as §1

[7] = tested on: S. aureus K19N; type: cell-based, Staphylococcus aureus; conditions: clinical strain, broth microdilution, 0.5 × 10^5 CFU/mL, 18 h, 37 °C, at least triplicate
Method: as §1

[8] = tested on: S. aureus 048S; type: cell-based, Staphylococcus aureus; conditions: clinical strain, broth microdilution, 0.5 × 10^5 CFU/mL, 18 h, 37 °C, at least triplicate
Method: as §1

[9] = tested on: S. aureus 001S (MRSA); type: cell-based, Staphylococcus aureus; conditions: clinical strain, broth microdilution, 0.5 × 10^5 CFU/mL, 18 h, 37 °C, at least triplicate
Method: as §1

[10] = tested on: S. aureus 060S; type: cell-based, Staphylococcus aureus; conditions: clinical strain, broth microdilution, 0.5 × 10^5 CFU/mL, 18 h, 37 °C, at least triplicate
Method: as §1

[11] = tested on: S. aureus 001N (MRSA); type: cell-based, Staphylococcus aureus; conditions: clinical strain, broth microdilution, 0.5 × 10^5 CFU/mL, 18 h, 37 °C, at least triplicate
Method: as §1

[12] = tested on: S. aureus 051N (MRSA); type: cell-based, Staphylococcus aureus; conditions: clinical strain, broth microdilution, 0.5 × 10^5 CFU/mL, 18 h, 37 °C, at least triplicate
Method: as §1

[13] = tested on: S. aureus 043SC (MRSA); type: cell-based, Staphylococcus aureus; conditions: clinical strain, broth microdilution, 0.5 × 10^5 CFU/mL, 18 h, 37 °C, at least triplicate
Method: as §1

[14] = tested on: S. aureus ATCC 6538/P; type: cell-based, Staphylococcus aureus; conditions: reference strain, broth microdilution, 0.5 × 10^5 CFU/mL, 18 h, 37 °C, at least triplicate
Method: as §1

[15] = tested on: S. aureus ATCC 6538; type: cell-based, Staphylococcus aureus; conditions: ATCC 6538, reference strain; broth microdilution, 0.5 × 10^5 CFU/mL, 18 h, 37 °C, at least triplicate
Method: as §1

[16] = tested on: S. aureus 002N; type: cell-based, Staphylococcus aureus; conditions: clinical strain, broth microdilution, 0.5 × 10^5 CFU/mL, 18 h, 37 °C, at least triplicate
Method: as §1

[17] = tested on: S. aureus ATCC 25923; type: cell-based, Staphylococcus aureus; conditions: ATCC 25923, reference strain; broth microdilution, 0.5 × 10^5 CFU/mL, 18 h, 37 °C, at least triplicate
Method: as §1

[18] = tested on: S. aureus 017N (MRSA); type: cell-based, Staphylococcus aureus; conditions: clinical strain, broth microdilution, 0.5 × 10^5 CFU/mL, 18 h, 37 °C, at least triplicate
Method: as §1

[19] = tested on: S. aureus 002S; type: cell-based, Staphylococcus aureus; conditions: clinical strain, broth microdilution, 0.5 × 10^5 CFU/mL, 18 h, 37 °C, at least triplicate
Method: as §1

[20] = tested on: S. aureus 017S (MRSA); type: cell-based, Staphylococcus aureus; conditions: clinical strain, broth microdilution, 0.5 × 10^5 CFU/mL, 18 h, 37 °C, at least triplicate
Method: as §1

[21] = tested on: S. aureus 033N; type: cell-based, Staphylococcus aureus; conditions: clinical strain, broth microdilution, 0.5 × 10^5 CFU/mL, 18 h, 37 °C, at least triplicate
Method: as §1

[22] = tested on: S. aureus 005S; type: cell-based, Staphylococcus aureus; conditions: clinical strain, broth microdilution, 0.5 × 10^5 CFU/mL, 18 h, 37 °C, at least triplicate
Method: as §1

[23] = tested on: S. aureus 015N (MRSA); type: cell-based, Staphylococcus aureus; conditions: clinical strain, broth microdilution, 0.5 × 10^5 CFU/mL, 18 h, 37 °C, at least triplicate
Method: as §1

[24] = tested on: S. aureus 004N (MRSA); type: cell-based, Staphylococcus aureus; conditions: clinical strain, broth microdilution, 0.5 × 10^5 CFU/mL, 18 h, 37 °C, at least triplicate
Method: as §1

[25] = tested on: S. aureus 051S; type: cell-based, Staphylococcus aureus; conditions: clinical strain, broth microdilution, 0.5 × 10^5 CFU/mL, 18 h, 37 °C, at least triplicate
Method: as §1

[26] = tested on: S. aureus ATCC 12598; type: cell-based, Staphylococcus aureus; conditions: ATCC 12598, reference strain; broth microdilution, 0.5 × 10^5 CFU/mL, 18 h, 37 °C, at least triplicate
Method: as §1

[27] = tested on: S. aureus 045N; type: cell-based, Staphylococcus aureus; conditions: clinical strain, broth microdilution, 0.5 × 10^5 CFU/mL, 18 h, 37 °C, at least triplicate
Method: as §1

[28] = tested on: S. aureus 039N; type: cell-based, Staphylococcus aureus; conditions: clinical strain, broth microdilution, 0.5 × 10^5 CFU/mL, 18 h, 37 °C, at least triplicate
Method: as §1

[29] = tested on: S. aureus ATCC 9144; type: cell-based, Staphylococcus aureus; conditions: ATCC 9144, reference strain; broth microdilution, 0.5 × 10^5 CFU/mL, 18 h, 37 °C, at least triplicate
Method: as §1

[30] = tested on: S. aureus 024N (MRSA); type: cell-based, Staphylococcus aureus; conditions: clinical strain, broth microdilution, 0.5 × 10^5 CFU/mL, 18 h, 37 °C, at least triplicate
Method: as §1

Substance	Mean value of MIC [1]	Mean MIC values [1]	MIC [2]	MIC [3]	MIC [4]	MIC [5]	MIC [6]	MIC [7]	MIC [8]	MIC [9]	MIC [10]	MIC [11]	MIC [12]	MIC [13]	MIC [14]	MIC [15]	MIC [16]	MIC [17]	MIC [18]	MIC [19]	further results
GIGKFLKKAKKFGKAFVKILKK-NH2 [Pexiganan]	–	–	–	–	–	–	–	–	–	–	–	–	–	–	–	–	–	–	–	–	MIC range among strains ([1]; range over all S. aureus strains and the salts of the peptide): 1 to 16 µg/mL
KWKLFKKIGAVLKVL-NH2 [CAMEL Cl^−]	≤ 2.0 µg/mL	≤ 2.0 µg/mL	4 µg/mL	1 µg/mL	4 µg/mL	≤ (≤ alone stands for MIC ≤ 0.25 µg/mL)	4 µg/mL	1 µg/mL	4 µg/mL	2 µg/mL	1 µg/mL	2 µg/mL	2 µg/mL	4 µg/mL	1 µg/mL	≤ (≤ alone stands for MIC ≤ 0.25 µg/mL)	≤ (≤ alone stands for MIC ≤ 0.25 µg/mL)	2 µg/mL	2 µg/mL	1 µg/mL	MIC [20]: 2 µg/mL; MIC [21]: 4 µg/mL; MIC [22]: ≤ (≤ alone stands for MIC ≤ 0.25 µg/mL); MIC [23]: 2 µg/mL; MIC [24]: 2 µg/mL; MIC [25]: 2 µg/mL; MIC [26]: 1 µg/mL; MIC [27]: 4 µg/mL; MIC [28]: 4 µg/mL; MIC [29]: 1 µg/mL; MIC [30]: ≤ (≤ alone stands for MIC ≤ 0.25 µg/mL)
GLFDVIKKVASVIGGL-NH2 [Citropin 1.1 TFA^−]	13.0 µg/mL	13.0 µg/mL	16 µg/mL	2 µg/mL	16 µg/mL	2 µg/mL	16 µg/mL	16 µg/mL	16 µg/mL	16 µg/mL	2 µg/mL	16 µg/mL	8 µg/mL	8 µg/mL	16 µg/mL	16 µg/mL	16 µg/mL	32 µg/mL	8 µg/mL	16 µg/mL	MIC [20]: 4 µg/mL; MIC [21]: 16 µg/mL; MIC [22]: 2 µg/mL; MIC [23]: 16 µg/mL; MIC [24]: 16 µg/mL; MIC [25]: 4 µg/mL; MIC [26]: 16 µg/mL; MIC [27]: 16 µg/mL; MIC [28]: 16 µg/mL; MIC [29]: 32 µg/mL; MIC [30]: 2 µg/mL
GLFDVIKKVASVIGGL-NH2 [Citropin 1.1 Cl^−]	10.0 µg/mL	10.0 µg/mL	16 µg/mL	1 µg/mL	16 µg/mL	2 µg/mL	16 µg/mL	16 µg/mL	16 µg/mL	16 µg/mL	2 µg/mL	16 µg/mL	8 µg/mL	8 µg/mL	8 µg/mL	4 µg/mL	16 µg/mL	16 µg/mL	4 µg/mL	8 µg/mL	MIC [20]: 4 µg/mL; MIC [21]: 16 µg/mL; MIC [22]: 2 µg/mL; MIC [23]: 8 µg/mL; MIC [24]: 8 µg/mL; MIC [25]: 4 µg/mL; MIC [26]: 8 µg/mL; MIC [27]: 16 µg/mL; MIC [28]: 16 µg/mL; MIC [29]: 16 µg/mL; MIC [30]: 2 µg/mL
KWKLFKKIGAVLKVL-NH2 [CAMEL TFA^−]	≤ 3.5 µg/mL	≤ 3.5 µg/mL	4 µg/mL	1 µg/mL	4 µg/mL	≤ (≤ alone stands for MIC ≤ 0.25 µg/mL)	4 µg/mL	4 µg/mL	4 µg/mL	4 µg/mL	2 µg/mL	4 µg/mL	4 µg/mL	4 µg/mL	4 µg/mL	2 µg/mL	4 µg/mL	8 µg/mL	4 µg/mL	4 µg/mL	MIC [20]: 2 µg/mL; MIC [21]: 4 µg/mL; MIC [22]: ≤ (≤ alone stands for MIC ≤ 0.25 µg/mL); MIC [23]: 4 µg/mL; MIC [24]: 4 µg/mL; MIC [25]: 2 µg/mL; MIC [26]: 4 µg/mL; MIC [27]: 4 µg/mL; MIC [28]: 4 µg/mL; MIC [29]: 8 µg/mL; MIC [30]: ≤ (≤ alone stands for MIC ≤ 0.25 µg/mL)

— PMC5917001, “Counter-ion effect on antistaphylococcal activity and cytotoxicity of selected antimicrobial peptides” (Amino Acids, 2018)
